In patent publication EP3225257A1, “AMPHIPHILIC MONOMERS BASED NANOVECTORS AND THEIR USE FOR SIRNA DELIVERY” (Université de Strasbourg, priority 2016, dated 2017):

System: A549-luc cells
Experiment: siRNA delivery, luciferase gene silencing
Format: cell-based, human
Conditions: 10 nM siRNA, 48 h
Procedure: The A549-luc cells that stably express the reporter gene luciferase GL3 (1-2 x 10^10 RLU/mg protein) were established by transfecting human lung carcinoma A549 cells (CCL-185; ATCC) with pGL3-Luc plasmid (Clontech, Mountain View, CA, USA) using jetPEI™ as delivery system (Polyplus-Transfection, Illkirch, France). Cells were grown in RPMI 1640 medium (Eurobio, Les Ulis, France) supplemented with 10% Fetal Bovine Serum (Eurobio, Les Ulis, France), 1% antibiotic solution (pencillin-streptomycin, Gibco-invitrogen) and maintained under 0.8 µg/mL G418 selection (Promega, Madison, WI, USA) at 37 °C in a 5% CO2 humidified atmosphere. […]
Luciferase gene expression was determined 48 h after delivery with a Luciferase Assay System (Promega, Charbonnières, France) according to manufacturer's instructions. The luminescence was quantified using 2 µL of cell lysate with a Centro LB luminometer (Berthold, Thoiry, France). Protein concentration in cell lysate was measured by using a BCA assay kit (Interchim, Montluçon, France), according to manufacturer's instructions. After expressing the luciferase activity as relative light units integrated over 10 s per mg of cell protein (RLU/mg), the luciferase gene silencing was calculated relative to the luciferase activity of non-transfected A549-luc cells.

Substance	specific inhibition (40 µg/ml, polymerized micelles of the surfactant) [%]	maximum inhibition (polymerized micelles of the surfactant at increasing concentrations) [%]
C25diynetrioxa-L-Histidine [compound 1]	80	
C25diynetrioxaamine [compound 2]		25
